Measured values as given in ChEMBL document CHEMBL1201862, “PubChem BioAssay data set” (2004).
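Dose response: 5 concentrations. Exposure: 48 h. Format: 96-well plates. Endpoint: linear interpolation; highest concentration if not reached. Here, GI50 denotes the concentration required for 50% inhibition of growth.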 Activity calls are given as the source filed them. Cut-off read from the data, not from the text of the source: active = GI50 up to about 1.1 µM and inactive = higher.

How the values were obtained:
Test in all cases: inhibition of tumour cell growth, NCI panel, 48 h
BT-549 = tested on: BT-549
MCF7 = tested on: MCF7
Malme-3M = tested on: Malme-3M
RXF 393 = tested on: RXF 393
RPMI-8226 = tested on: RPMI-8226
U-251 = tested on: U-251
SK-MEL-5 = tested on: SK-MEL-5
SK-OV-3 = tested on: SK-OV-3
HOP-92 = tested on: HOP-92
UACC-62 = tested on: UACC-62
HCT-116 = tested on: HCT-116
K562 = tested on: K562
DU-145 = tested on: DU-145
HOP-62 = tested on: HOP-62
SF-539 = tested on: SF-539
OVCAR-3 = tested on: OVCAR-3
MDA-N = tested on: MDA-N
NCI/ADR-RES = tested on: NCI/ADR-RES
SNB-75 = tested on: SNB-75
Hs-578T = tested on: Hs-578T

Row | SMILES | GI50 (BT-549) | GI50 (MCF7) | GI50 (Malme-3M) | GI50 (RXF 393) | GI50 (RPMI-8226) | GI50 (U-251) | GI50 (SK-MEL-5) | GI50 (SK-OV-3) | GI50 (HOP-92) | GI50 (UACC-62) | GI50 (HCT-116) | GI50 (K562) | GI50 (DU-145) | GI50 (HOP-62) | GI50 (SF-539) | GI50 (OVCAR-3) | GI50 (MDA-N) | GI50 (NCI/ADR-RES) | GI50 (SNB-75) | GI50 (Hs-578T)
1 | O=C1c2ccccc2-c2nc3ccc(O)cc3n21 | > 100 µM (inactive) | > 100 µM (inactive) | > 100 µM (inactive) | > 100 µM (inactive) | > 100 µM (inactive) | > 100 µM (inactive) | > 100 µM (inactive) | > 100 µM (inactive) | > 100 µM (inactive) | > 100 µM (inactive) | > 100 µM (inactive) | > 100 µM (inactive) | > 100 µM (inactive) | > 100 µM (inactive) | > 100 µM (inactive) | > 100 µM (inactive) | > 100 µM (inactive) | > 100 µM (inactive) | 34.1 µM (inactive) | –
2 | CCC/C=C/c1cc2c(cc1O)CC[C@@H]1[C@@H]2CC[C@]2(C)[C@@H](O)CC[C@@H]12 | 18.8 µM (inactive) | 25.5 µM (inactive) | 16.5 µM (inactive) | 16.3 µM (inactive) | 14 µM (inactive) | 16.9 µM (inactive) | 16.4 µM (inactive) | 26.8 µM (inactive) | 20.3 µM (inactive) | 14.5 µM (inactive) | – | 16.8 µM (inactive) | – | – | – | 19.2 µM (inactive) | 15.1 µM (inactive) | 18.5 µM (inactive) | 16.4 µM (inactive) | 21.7 µM (inactive)
3 | O=C1/C(=C/c2ccccc2)CN(C(=O)OCc2ccccc2)C/C1=C\c1ccccc1 | 13.2 µM (inactive) | 6.43 µM (inactive) | 30.4 µM (inactive) | 13.4 µM (inactive) | – | 4.51 µM (inactive) | 16.8 µM (inactive) | 24.4 µM (inactive) | > 69.5 µM (inactive) | 12.2 µM (inactive) | 0.345 µM (active) | 1.88 µM (inactive) | 54.8 µM (inactive) | 32.1 µM (inactive) | 18.3 µM (inactive) | 1.68 µM (inactive) | 3.06 µM (inactive) | – | > 31.6 µM (inactive) | 2.47 µM (inactive)
4 | COc1ccc2c(c1)C1OCCNC1CC2 (stereo not given) | > 100 µM (inactive) | > 100 µM (inactive) | > 100 µM (inactive) | > 100 µM (inactive) | > 100 µM (inactive) | > 100 µM (inactive) | > 100 µM (inactive) | > 100 µM (inactive) | – | > 100 µM (inactive) | > 100 µM (inactive) | > 100 µM (inactive) | > 100 µM (inactive) | > 100 µM (inactive) | > 100 µM (inactive) | – | > 100 µM (inactive) | > 100 µM (inactive) | > 100 µM (inactive) | > 100 µM (inactive)
5 | CC(=O)OCc1nc(C#N)c(N)o1 | > 100 µM (inactive) | > 100 µM (inactive) | > 100 µM (inactive) | > 100 µM (inactive) | > 100 µM (inactive) | > 100 µM (inactive) | > 100 µM (inactive) | > 100 µM (inactive) | > 100 µM (inactive) | > 100 µM (inactive) | > 100 µM (inactive) | > 100 µM (inactive) | > 100 µM (inactive) | > 100 µM (inactive) | – | > 100 µM (inactive) | > 100 µM (inactive) | – | – | > 100 µM (inactive)
6 | S=C(N1CCN(c2ccccc2)CC1)N1CCN(c2ccccc2)CC1 | > 100 µM (inactive) | > 100 µM (inactive) | > 100 µM (inactive) | > 100 µM (inactive) | > 100 µM (inactive) | > 100 µM (inactive) | 95.1 µM (inactive) | > 100 µM (inactive) | – | > 100 µM (inactive) | 81.8 µM (inactive) | > 100 µM (inactive) | > 100 µM (inactive) | > 100 µM (inactive) | – | > 100 µM (inactive) | 89.5 µM (inactive) | > 100 µM (inactive) | 27.2 µM (inactive) | > 100 µM (inactive)
7 | Cn1/c(=N\N=C2\C=C3CCCCC3(C)CC2)sc2ccccc21 (stereo not given) | > 100 µM (inactive) | > 100 µM (inactive) | > 100 µM (inactive) | > 100 µM (inactive) | – | > 100 µM (inactive) | > 100 µM (inactive) | > 100 µM (inactive) | > 100 µM (inactive) | > 100 µM (inactive) | > 100 µM (inactive) | > 100 µM (inactive) | > 100 µM (inactive) | > 100 µM (inactive) | > 100 µM (inactive) | > 100 µM (inactive) | > 100 µM (inactive) | > 100 µM (inactive) | 47.1 µM (inactive) | > 100 µM (inactive)
8 | CC(=O)O[C@H]1CC[C@@]2(C)C(=CC[C@@H]3[C@@H]2CC[C@]2(C)c4c(C)n[nH]c4C[C@@H]32)C1 | 15.2 µM (inactive) | 11.5 µM (inactive) | 3.75 µM (inactive) | 11.4 µM (inactive) | – | 15.3 µM (inactive) | 13.4 µM (inactive) | 26.9 µM (inactive) | 21 µM (inactive) | 12 µM (inactive) | 11.2 µM (inactive) | 2.54 µM (inactive) | 14.2 µM (inactive) | 21.1 µM (inactive) | – | 12.2 µM (inactive) | 20.1 µM (inactive) | 26.1 µM (inactive) | 12.2 µM (inactive) | 17.6 µM (inactive)
9 | CC1(C)CC(=O)C(=CNC(=O)c2ccncc2)C(=O)C1 | > 100 µM (inactive) | > 100 µM (inactive) | – | > 100 µM (inactive) | – | > 100 µM (inactive) | > 100 µM (inactive) | > 100 µM (inactive) | > 100 µM (inactive) | > 100 µM (inactive) | > 100 µM (inactive) | – | > 100 µM (inactive) | > 100 µM (inactive) | > 100 µM (inactive) | > 100 µM (inactive) | > 100 µM (inactive) | > 100 µM (inactive) | > 100 µM (inactive) | > 100 µM (inactive)
10 | N#Cc1cnc(-n2[nH]c3c(c2=O)CCCC3)[nH]c1=O | 73.5 µM (inactive) | 39.8 µM (inactive) | 50 µM (inactive) | > 100 µM (inactive) | 88.3 µM (inactive) | 58.6 µM (inactive) | 48.1 µM (inactive) | 75.3 µM (inactive) | 35.2 µM (inactive) | 38.6 µM (inactive) | 38 µM (inactive) | 69.8 µM (inactive) | 64.1 µM (inactive) | – | 43.9 µM (inactive) | – | > 100 µM (inactive) | – | 0.264 µM (active) | > 100 µM (inactive)
11 | O=C(Cc1ccccc1)c1ccc2[nH]c(=O)oc2c1 | 48.6 µM (inactive) | 43.5 µM (inactive) | – | 39.6 µM (inactive) | 9.23 µM (inactive) | 16.8 µM (inactive) | – | 76.2 µM (inactive) | – | 58.5 µM (inactive) | 43.8 µM (inactive) | 31 µM (inactive) | 62.2 µM (inactive) | 90.6 µM (inactive) | 32.2 µM (inactive) | 35.2 µM (inactive) | 39.3 µM (inactive) | 18.4 µM (inactive) | 0.126 µM (active) | 1.03 µM (active)
12 | C[n+]1cn(-c2nc3ccccc3nc2[N-]S(=O)(=O)c2ccccc2)c2ccccc21 | > 100 µM (inactive) | > 100 µM (inactive) | > 100 µM (inactive) | 62.2 µM (inactive) | > 100 µM (inactive) | > 100 µM (inactive) | > 100 µM (inactive) | > 100 µM (inactive) | > 100 µM (inactive) | > 100 µM (inactive) | > 100 µM (inactive) | > 100 µM (inactive) | – | > 100 µM (inactive) | > 100 µM (inactive) | > 100 µM (inactive) | > 100 µM (inactive) | > 100 µM (inactive) | > 100 µM (inactive) | > 100 µM (inactive)
13 | Cc1n[nH]c(=O)n1/N=C/c1cccc(Cl)c1 | 47.2 µM (inactive) | > 100 µM (inactive) | > 100 µM (inactive) | 20.2 µM (inactive) | > 100 µM (inactive) | 65.5 µM (inactive) | – | > 100 µM (inactive) | – | > 100 µM (inactive) | > 100 µM (inactive) | > 100 µM (inactive) | 35.6 µM (inactive) | 49.3 µM (inactive) | 89.5 µM (inactive) | > 100 µM (inactive) | > 100 µM (inactive) | > 100 µM (inactive) | 61.5 µM (inactive) | 17.7 µM (inactive)
14 | COC1/C=C/O[C@@]2(C)Oc3c(C)c(O)c4c(O)c(cc(O)c4c3C2=O)NC(=O)/C(C)=C\C=C\[C@H](C)C(O)[C@@H](C)[C@@H](O)[C@@H](C)[C@H](OC(C)=O)[C@@H]1C (stereo not given in full) | 18.5 µM (inactive) | 10.2 µM (inactive) | 30.6 µM (inactive) | 11.2 µM (inactive) | – | 44.2 µM (inactive) | 32.1 µM (inactive) | 110 µM (inactive) | 10.2 µM (inactive) | 18.1 µM (inactive) | – | 9.89 µM (inactive) | 24 µM (inactive) | 117 µM (inactive) | 25.9 µM (inactive) | – | 14.5 µM (inactive) | 32.4 µM (inactive) | 36.8 µM (inactive) | 33 µM (inactive)
15 | CC1=CC(=O)C(=C(C)C)CC1 | > 100 µM (inactive) | > 100 µM (inactive) | > 100 µM (inactive) | 26.1 µM (inactive) | – | > 100 µM (inactive) | > 100 µM (inactive) | > 100 µM (inactive) | – | > 100 µM (inactive) | > 100 µM (inactive) | > 100 µM (inactive) | > 100 µM (inactive) | > 100 µM (inactive) | – | > 100 µM (inactive) | > 100 µM (inactive) | > 100 µM (inactive) | > 100 µM (inactive) | > 100 µM (inactive)
